Reference: a melting point compilation (Tetko et al.; mined from patent text by program, amines drawn as free bases though some values may be those of a salt)

Row | Structure (SMILES) | melting point [°C]
1 | Clc1cccc(-c2nnnn2Cc2cscn2)c1Cl | 153 to 154
2 | CCCCc1nc2c(=O)[nH]ccc2n1Cc1ccc(-c2ccccc2C#N)cc1 | 179
3 | CC(CC1=Nc2cc(Cl)ccc2S(=O)(=O)N1)CC(C)(C)C (centres undefined) | 243 to 244
4 | COc1ccccc1NC(=O)c1ccc(CN2CCOCC2)cc1 | 90 to 93.5
5 | COc1ccc2c(C(=S)N(C)CC(=O)O)cccc2c1SC(F)(F)F | 168 to 169
6 | O=C1c2ccccc2C(=O)N1C/C=C(\F)COc1ccc(Cl)cc1Cl | 115 to 116
7 | O=C(OCC(Cl)(Cl)Cl)N1C2CCC1CC(Sc1ccccc1)C2 (centres undefined) | 83 to 84.5
8 | CCNC(=S)n1nc(Oc2c(Cl)cc(C(F)(F)F)cc2Cl)cc1C | 94 to 96
9 | COc1ccc(S(C)(=O)=O)cc1-c1nc2ccc(C(C)(C)CNC=O)cc2[nH]1 | 235 to 236
10 | Cc1noc2ccc(Oc3ncccc3C(=O)NCc3ccc(C(C)(C)O)cc3)cc12 | 128 to 130
11 | CCOC(=O)Nc1nc2cc(-c3cccnc3)cc(-c3ccccn3)c2s1 | 235
12 | Cc1ccc(S(=O)(=O)N2[C@@H](Cc3nc(C4CC4)no3)CC[C@H]2c2ccc(F)cc2)cc1 (racemic) | 102
13 | CN1C(=O)N(CC(=O)COC(C)(C)C)C(=O)C1(C)C | 61 to 63
14 | S=C1NC2(CCCCC2)NC12CCCCC2 | 229
15 | CCCCCCCC1=CC(=O)N(Cc2ccccc2)C1(O)CBr (centres undefined) | 94 to 96
16 | c1ccc(-c2ncnn2-c2ccccc2)cc1 | 85 to 87
17 | Cc1cn2cc(Cl)cc(Cl)c2n1 | 156 to 158
18 | COc1ccccc1C1(CC(=O)O)C(=O)Nc2ccc(Cl)cc21 (centres undefined) | 135 to 139
19 | O=C(c1ccc([N+](=O)[O-])cc1Cl)N1CCCCc2ccccc21 | 112 to 114
20 | CCCS(=O)c1ccc([N+](=O)[O-])c(N)c1 (centres undefined) | 128 to 130
21 | N=c1[nH]c(=N)c2ncn(C3OC(CO)C(O)C3O)c2c(=N)[nH]1 (centres undefined) | > 200
22 | CC(=O)N1CCN(c2ccc(C3CCS(=O)(=O)NC3)cc2)CC1 (centres undefined) | 196 to 197
23 | CN1CCN(c2ccc([N+](=O)[O-])cc2C(F)(F)F)C1=O | 119 to 120
24 | Clc1cccc(CSc2nnc(-c3ccc4occc4c3)o2)c1 | 125 to 126
25 | CCOC(=O)c1nc2cc(C(C(C)C)n3ccnc3)ccc2[nH]c1=O (centres undefined) | 230

Row | Structure (SMILES) | melting point [°C]
26 | COc1ccc2c(c1)C(=O)C(Cc1ccncc1)CO2 (centres undefined) | 91 to 92.5
27 | Cc1ccc(C2CC(C(C)(C)C)=NN2c2ccc(C(=O)O)cc2)cc1 (centres undefined) | 195
28 | O=C(NC1C2CC3CC(C2)CC1C3)c1cc(-c2ccc(Cl)cc2)n(-c2ccc(Cl)cc2Cl)n1 (centres undefined) | 203
29 | CCOC(=O)c1cccc(NC(=O)c2sc(NC(=N)N)nc2C)c1 | 149 to 152
30 | COC(=O)CCC(=O)c1cccc(Cl)c1O | 60 to 62
31 | COc1ccccc1N1CCN(CCCNC(=O)c2cccc3c(=O)c(O)c(-c4ccccc4)oc23)CC1 | 196 to 199
32 | COc1cc(C)c(CCCCCCCCCCCCCCCCCCCCCC(=O)O)c(O)c1OC | 67 to 68
33 | CCOC(=O)c1c(-c2ccccc2Cl)c2cc(CC)sc2[nH]c1=O | 126 to 127
34 | CNc1cc(NS(=O)(=O)c2ccc(NC(C)=O)cc2)nc(N2CCCC2)n1 | 271 to 274
35 | CC(C)N(C(N)=S)c1ccc2c(c1)OCO2 | 149 to 151
36 | O=C(CC1(c2ccccc2)CC1)C(=O)Nc1ccc2c(c1)COC2=O | 132 to 138
37 | CN(C)CCOC(=O)c1cc2cccc(OCc3ccccc3)c2[nH]1 | 113 to 115
38 | Cc1cc2c(c(C)c1O)C(C)CN2C(=O)C(C)C (centres undefined) | 123 to 125
39 | COc1c(C#N)c2c(c3c1OC(C)(C)C3)C(c1ccccc1)=NC(C)(C)C2 | 166 to 168
40 | NCCc1c[nH]c2cc3c(cc12)C(=O)NCC3 | 82 to 86
41 | NC(=O)NCCNc1n[nH]c2ncnc(Nc3cccc(Cl)c3)c12 | 212 to 214
42 | CC(Oc1ccc(C(=O)O)cc1)c1ccccc1OCc1ccccc1 (centres undefined) | 203 to 204
43 | O=CC(=Cc1ccccc1OCc1ccc(Br)cc1)C(C=O)=Cc1ccccc1OCc1ccc(Br)cc1 | 210 to 211
44 | CCn1c(=O)n(CCc2ccc(C)cc2)c(=O)n(C(C)(C)C)c1=O | 64
45 | CN(c1cc(F)c(C#N)cc1F)c1nnnn1-c1ccc(F)cc1 | 162
46 | CC(C)(C)c1csc(-c2cc3cc(OCc4ccccc4Cc4nnn[nH]4)ccc3o2)n1 | 80 to 84
47 | O=C1CC[C@]2(O)C[C@H]1OC2=O | 144 to 145
48 | O=C(O)c1cn(C2CC2)c2c(F)c(N3CCNCC3)c(F)c(F)c2c1=O | 208 to 213
49 | COc1c(Cl)cc(C(C)(C)N2CC(C)=C(c3ccccc3)C2=O)cc1Cl | 136 to 139
50 | CC(=O)SCC(Cc1ccccc1)C(=O)Nc1ccccc1C(=O)O (centres undefined) | 121 to 122

Row | Structure (SMILES) | melting point [°C]
51 | COc1ccccc1N1CCN(CCCNC(=O)c2csc3c(=O)cc(C(F)(F)F)oc23)CC1 | 170 to 177
52 | CCCCCCCCCCC[C@]1(C)OO[C@@H]2C[C@H]1CC(=O)[C@@H]2C | 42
53 | CC1(COc2ccc(CP(=O)(O)O)cc2)CCCCC1 | 170 to 172
54 | CNCCOc1cccc2c1c1cc(C)ccc1n2Cc1ccccc1 | 96 to 96.8
55 | COc1ccc(CO)cc1OCc1nc(-c2ccco2)oc1C | 145 to 146
56 | CNC(=O)N1N=C(c2ccc([N+](=O)[O-])cc2)c2cc(Br)ccc2CC1C (centres undefined) | 197 to 200
57 | CCCCc1oc2ccccc2c1C(=O)NCc1ccc2c(Br)c(OC(Cc3ccccc3)C(=O)O)ccc2c1 (centres undefined) | 125 to 130
58 | CN(C)c1c([N+](=O)[O-])cc(-c2nc(Cl)c(CC#N)n2Cc2ccccc2)cc1[N+](=O)[O-] | 173 to 175
59 | Cc1noc2ccc(Oc3ncccc3C(=O)NCC3CCC(C(C)(C)O)CC3)cc12 (centres undefined) | 135 to 137
60 | OC1COC(c2ccccc2)OC1 (centres undefined) | 83 to 84
61 | Cn1cc(SC(F)(F)F)c(=O)c(-c2cccc(C(F)(F)F)c2)c1 | 122 to 124
62 | O=S(=O)(c1ccccc1)c1c[nH]c2ncccc12 | > 250
63 | O=P1(c2ccccc2)c2ccccc2CN1c1ccccc1 (centres undefined) | 227 to 229
64 | O=C(Nc1ccc(OCCN2CCOCC2)c2ccccc12)c1cc(F)cc(N2CCCCCC2)c1 | 142 to 144
65 | CCOC(=O)c1c(C)cc2nc(CO)n(-c3ccc(OC)c(OC)c3)c(=O)c2c1C | 181 to 182
66 | O=C(Nc1ccc(OCc2ccccc2)cc1)C(Br)CCBr (racemic) | 140 to 142
67 | CCCCC(=O)Oc1cccc(NC(=O)C=C(C)OC)c1 | 84
68 | O=[N+]([O-])c1ccc(Oc2ccc(S(=O)(=O)c3ccc(Oc4ccc([N+](=O)[O-])c(O)c4)cc3)cc2)cc1O | 220 to 222
69 | CCCC1(C(C)(C)C(=O)Oc2ccc(N)cc2)C(=O)NC(=O)NC1=O | 212 to 215
70 | OCc1cnoc1-c1ccc(-c2ccccc2)cc1 | 108 to 110
71 | NN1C=Nc2ccc(Cl)cc2C1(O)c1ccccc1 (centres undefined) | 157 to 158
72 | COc1c(C)c(C(=O)c2ccc3c(c2)c(=O)n(CC(=O)N(C)C)c(=O)n3C)n2ccccc12 | 276
73 | O=C(CCNC(=O)n1cc(F)c(=O)[nH]c1=O)N1CCOCC1 | 178 to 180
74 | COC(=O)c1cc(O)c([N+](=O)[O-])cc1C(=O)OC | 82 to 85
75 | CN1CCC(Oc2ccc(N)cc2)(c2ccccc2)CC1 | 174 to 175

Row | Structure (SMILES) | melting point [°C]
76 | Cc1cc(OCc2ccc(-c3ccc(OC(F)(F)F)cc3)nc2C)ccc1OC(C)(C)C(=O)O | 149 to 151
77 | COc1ccc(C(=O)Cc2c(Cl)cncc2Cl)c2c1OC(C)(C)C2 | 127 to 131
78 | CCCCCCCCCCc1cnc(-c2ccc3c(c2)C(=O)C(CCCCCC)C3)nc1 (centres undefined) | 87
79 | O=c1[nH]c2ccccc2n2cc(-c3ccccc3)cc12 | 301 to 303
80 | CCCCCc1cc(OC)c(C2=C[C@H]3CC[C@]2(C(=O)O)C3(C)C)c(OC)c1 | 84 to 86
81 | C#CCCCCOc1ccc(/C=C/C(=O)Nc2ccccc2C(=O)O)cc1OC | 148 to 150
82 | O=C(Nc1ccc(-n2nc(-c3ccoc3)cc2Cl)cc1)c1ccncc1F | 165 to 166
83 | Cc1ccc(F)c(C(C)Oc2ccc3nc(NC(=O)NCCN4CCOCC4)sc3c2)c1F (centres undefined) | 92 to 95
84 | CN1CC(Cn2cnnn2)CC2c3cccc4[nH]cc(c34)CC21 (centres undefined) | 206 to 209
85 | COc1cc2cc3c(Nc4ccc(Sc5nccn5C)c(Cl)c4)c(C#N)cnc3cc2cc1OCCn1ccnn1 | 201 to 207
86 | CO[C@@H]1C[C@H](C)N(c2ccc(C#N)c3ccccc23)C1 | 88 to 89
87 | OCCSC(=S)Nc1ccccn1 | 88
88 | CCOC(=O)C1OC1C(=O)Nc1ccccc1 (centres undefined) | 83 to 84
89 | Cc1oc(-c2ccccc2)nc1COc1ccc2cc(Cn3cc(CCC(=O)O)c(-c4ccccc4)c3)ccc2c1 | 122 to 123
90 | CN1C(=O)N(c2ccc(C#N)c(C(F)(F)F)c2)C(=O)C1(CF)CF | 137 to 138
91 | CCCCS(=O)(=O)N(C)CCN1CC(c2ccc3c(c2)OCO3)C(C(=O)O)C1c1ccc(OC)cc1 (centres undefined) | 64 to 66
92 | CC1(C)C=CC(=Cc2ccc(F)cc2)C1(O)Cn1ccnc1 (centres undefined) | 172
93 | O=C(NNc1ccccc1C(F)(F)F)c1c(F)cccc1F | 129 to 130
94 | Fc1ccc(OCCCN2CCN(c3ncc4ccccc4n3)CC2)cc1 | 126 to 128
95 | NC(=O)c1cccc(Cn2ccc(OCc3ccc(F)cc3F)c(Cl)c2=O)c1F | 252 to 254
96 | C=CCC(F)(F)C(O)C(CC(C)C)NC(=O)c1ccccc1 (centres undefined) | 110
97 | O=c1cc(O)nc2cc(C(c3c(F)ccc(F)c3F)S(=O)(=O)CCC(F)(F)F)c(Cl)cn12 (centres undefined) | 264
98 | C=CCC1CC(c2c[nH]c(-c3ccc(F)cc3)c2-c2ccncc2)=CCN1C (centres undefined) | 178 to 180
99 | CC(C)NCC(O)COC1c2ccccc2C(=O)N1c1ccccc1 (centres undefined) | 92
